Results from US20210030703A1, “USE OF CALORIC RESTRICTION MIMETICS FOR POTENTIATING CHEMO-IMMUNOTHERAPY FOR THE TREATMENT OF CANCERS” (INSERM (INSTITUT NATIONAL DE LA SANTÉ ET DE LA RECHERCHE …, priority 2018, published 2021).

How the values were obtained:
Format in all cases: in vivo, C57B1/6 mice
[1] = tested on: MCA205 fibrosarcoma; assay: Subcutaneous MCA205 fibrosarcoma: tumor growth, cure and survival under chemo-immunotherapy; details: for Complete responses leading to tumor eradication: endpoint 50 days after chemotherapy; for Efficacy of MTX + ICIs (anti-PD-1 plus anti-CTLA-4) chemo-immunotherapy when the CRM is added: figure legends FIG. 2, 3, 4, 6
Protocol: Mouse strain and housing. Six- to 8-week-old wild-type female C57B1/6 mice were obtained from Envigo RMS SARL (Gannat, France). Animals were maintained in specific pathogen-free conditions in a temperature-controlled environment with 12 h light, 12 h dark cycles and received food and water ad libitum (unless precised otherwise). Animal experiments were in compliance with the EU Directive 63/2010 and approved by the Ethical Committee of the Cordeliers Research Center (Paris, France). All mouse experiments were randomized and blinded, and sample sizes were calculated to detect a statistically significant effect.
In vivo experimentations. Tumor engraftment was performed through subcutaneous injection of 3×10^5 MCA205 fibrosarcoma tumor cells (in 100 μl PBS) in the right flank of the mice. Tumor volume was monitored using a digital caliper and calculated according to the formula: volume=length×width×height/8×4/3 pi. When tumor reached 20 mm^3 on average, mice underwent fasting (48 hours without food but ad libitum access to water) or were given caloric restriction mimetics (CRMs) such as aspirin (Asp; 10 mg/kg i.p. in 200 μl phosphate buffered saline [PBS] five times per week), hydroxycitrate (HC; 5 mg/ml in drinking water daily) or spermidine (Spd; 50 mg/kg i.p. in 200 μl Earle's balanced salt solution three times per week), or were treated with mitoxantrone (MTX; 5.17 mg/kg i.p. in 200 μl PBS), or with the immune checkpoint inhibitors (ICIs) anti-PD-1 (10 mg/kg i.p. in 200 μl PBS) and/or anti-CTLA-4 (5 mg/kg i.p. in 200 μl PBS). Tumor size was carefully monitored up to 50 days post-MTX. Antitumor immunity induced by the treatment in cured mice was challenged by subcutaneously re-engrafting the same tumor (3×10^5 syngeneic MCA205 fibrosarcoma cells) in one flank while an antigenically unrelated cancer (3×10^5 syngeneic TC1 lung carcinoma cells) was implanted into the contralateral flank.
Statistical analyses. For tumor size comparison, Student unpaired t test or one-way ANOVA (Holm-Sidak) were performed. All statistical analyses were performed using GraphPad Prism version 6 for Windows (GraphPad Software, La Jolla, Calif., USA). Differences were considered significant when p value<0.05.

[2] = tested on: PD-L1; assay: PD-L1 expression on CD45+/- tumor infiltrating cells
Excerpt: WT 9 weeks old C57B1/6 mice were subcutaneously injected with MCA205 WT fibrosarcoma cells. When tumors became palpable, mice underwent two days of fasting (d-2 to d0). HC treatment in drinking water began the day after (d-1), followed by chemotherapy with MTX (d0). 11 days post-chemotherapy, mice were sacrified and tumors were collected, dissociated, filtrated and stained with panel 3 antibodies. The results are represented as percentage among viable cells. […] The data shown represent a pool of two independent experiments sharing all the groups. Statistical analysis were realized using ordinary one-way ANOVA. ****p<0.001, ***p<0.005, **p<0.01, *p<0.05.
(§1) 3 or 11 days post-chemotherapy (d3 or d11), mice were euthanized and the tumors were withdrawn and placed in gentleMACS C tubes (ref 130-096-334 from Miltenyi Biotec™) previously filled with 1 ml of DMEM or RPMI medium, and immediately put on ice. After a mechanical (with scissors) and chemical digestion (thanks to the tumor dissociation kit and the gentleMACS Octo Dissociator, ref 130-096-730 and 130-096-427, respectively, from Miltenyi Biotec™), tumors were filtered (using MACS smartstrainers […], ref 130-110-916 from Miltenyi Biotec™), washed twice with PBS and distributed in a 96-wells round bottom plate.
(§2) Then, cells were stained with a live dead dye (ref L34959 from ThermoFisher Scientific™) and an FCblock receptor targeting antibody. […] Finally, cells were resuspended in FACS buffer and analyzed on a flow cytometer BD LSR II.

[3] = tested on: PD-L2; assay: PD-L2 expression in tumor cells; details: data not shown
Protocol: as §1, §2

[4] = HC + MTX chemotherapy + immunotherapy (anti-PD-1 plus anti-CTLA-4)

**Q.** `O=C(O)CC(O)(C(=O)O)C(O)C(=O)O` (stereo not drawn) [HC, hydroxycitrate] was tested. Which “Complete responses at day 30” value [1, 4] did it give?
**A.** all animals of the group

**Q.** And the Stable response [1, 4]?
**A.** 7 out of 8

**Q.** What about the “Reduction of tumor growth” value ([1]; HC in drinking water + MTX chemotherapy + immunotherapy, versus all other groups) of the same molecule?
**A.** more efficient in reducing tumor growth than all other groups

**Q.** What about the “Reduction of tumor growth and prolongation of survival” value ([1]; HC+MTX versus MTX alone, data not shown) of the same molecule?
**A.** more successful in reducing tumor growth and in prolonging survival than MTX alone

**Q.** What about the “Complete responses leading to tumor eradication” value ([1]; MTX plus HC) of the same molecule?
**A.** either not seen at all or rare

**Q.** And the Tumor-free mice ([1]; MTX pre-treatment associated with the CRM, then CTLA-4/PD-1-blocking antibodies (FIG. 6))?
**A.** 7 out of 10

**Q.** What about the “Efficacy of MTX + ICIs (anti-PD-1 plus anti-CTLA-4) chemo-immunotherapy when the CRM is added” value [1] of the same molecule?
**A.** further enhanced

**Q.** What about the “Efficacy of MTX + ICIs (anti-PD-1 plus anti-CTLA-4) chemo-immunotherapy when the CRM is added” value ([1]; listed as Hydroxycitrate) of the same molecule?
**A.** enhances tumor growth control

**Q.** And the “Response to CTLA-4/PD-1-blockade” value ([1]; pretreated with the CRM alone (without MTX), data not shown)?
**A.** did not respond

**Q.** And the “Effect of co-treatment on MTX-induced PD-L1 upregulation” value ([2]; FIG. 8A-D)?
**A.** not altered

**Q.** What about the “Effect of co-treatment on MTX-induced PD-L2 increase in CD45- cells” value [3] of the same molecule?
**A.** not affected

**Q.** Which results are given for `O=C1c2c(O)ccc(O)c2C(=O)c2c(NCCNCCO)ccc(NCCNCCO)c21` [MTX, mitoxantrone]?
**A.** Complete responses leading to tumor eradication ([1]; MTX plus immunotherapy (antibodies blocking CTLA-4 or PD-1)): either not seen at all or rare; Complete responses leading to tumor eradication ([1]; MTX plus isotypes): either not seen at all or rare; Complete cure ([1]; MTX pretreatment, then CTLA-4/PD-1-blocking antibodies from day 8 post-chemotherapy (FIG. 6)): 3 out of 10; PD-L1 on non-leukocytes from the cancer (CD45- cells, mostly malignant cells) ([2]; MCA205 tumor-bearing mice treated with MTX (FIG. 8A, B)): upregulation; PD-L1 in leukocytes expressing CD11b ([2]; MCA205 tumor-bearing mice treated with MTX (FIG. 8C, D)): upregulation; Percentage of CD45- PD-L1+ cells ([2]; MTX alone or in combination with NF or HC, 11 days post-chemotherapy (FIG. 8A)): increases; Mean fluorescent intensity of PD-L1 on CD45- cells ([2]; MTX alone or in combination with NF or HC, 11 days post-chemotherapy (FIG. 8B)): increases; Percentage of CD45+ PD-L1+ cells ([2]; MTX alone or in combination with NF or HC, 11 days post-chemotherapy (FIG. 8C)): increases; Mean fluorescent intensity (D) of PD-L1 on CD45- cells ([2]; MTX alone or in combination with NF or HC, 11 days post-chemotherapy (FIG. 8D)): increases; PD-L2 expression in CD45- cells ([3]; MTX): increase
